Source: patent publication US20050165024A1, “Urea derivatives as kinase modulators” (Ambit Biosciences Corporation, priority 2003, published 2005)

Legend:
Details in all cases: Kd class symbols
[1] = target: T1, MKNK2 (DKIN) (Homo sapiens, UniProt Q9HBH9); test: Binding constant (Kd) measurement, phage-displayed kinase competition binding assay: MKNK2
T1 construct: (DKIN); made in house
From the text: (§1) The term “ND” represents non-determined values.

[2] = target: T2, STK10(DKIN) (Homo sapiens, UniProt O94804); test: Binding constant (Kd) measurement, phage-displayed kinase competition binding assay: STK10
T2 construct: STK10(DKIN); made in house
From the text: as §1

[3] = target: T3, p38-alpha(FKIN) (Homo sapiens, UniProt Q16539); test: Binding constant (Kd) measurement, phage-displayed kinase competition binding assay: p38
T3 construct: made in house
From the text: as §1

T3 sequence (Q16539 whole entry): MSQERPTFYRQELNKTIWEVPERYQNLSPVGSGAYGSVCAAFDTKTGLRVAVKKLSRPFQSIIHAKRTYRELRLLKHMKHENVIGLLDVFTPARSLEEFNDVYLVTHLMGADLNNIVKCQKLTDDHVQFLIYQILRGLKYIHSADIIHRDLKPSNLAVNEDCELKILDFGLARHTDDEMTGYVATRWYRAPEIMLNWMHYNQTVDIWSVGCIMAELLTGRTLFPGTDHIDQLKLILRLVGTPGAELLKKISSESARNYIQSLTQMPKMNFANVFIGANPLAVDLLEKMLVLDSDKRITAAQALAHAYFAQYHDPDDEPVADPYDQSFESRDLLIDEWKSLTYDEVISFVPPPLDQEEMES
T2 sequence (O94804 36-294 limits assumed): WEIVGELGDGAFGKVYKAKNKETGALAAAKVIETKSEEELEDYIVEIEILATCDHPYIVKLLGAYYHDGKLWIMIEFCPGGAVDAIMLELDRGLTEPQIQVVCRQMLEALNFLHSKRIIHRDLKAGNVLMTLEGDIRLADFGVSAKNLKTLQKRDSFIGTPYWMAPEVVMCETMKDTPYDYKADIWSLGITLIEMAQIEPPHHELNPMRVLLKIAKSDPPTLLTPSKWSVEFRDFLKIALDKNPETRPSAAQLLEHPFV
T1 sequence (Q9HBH9 84-388 limits assumed): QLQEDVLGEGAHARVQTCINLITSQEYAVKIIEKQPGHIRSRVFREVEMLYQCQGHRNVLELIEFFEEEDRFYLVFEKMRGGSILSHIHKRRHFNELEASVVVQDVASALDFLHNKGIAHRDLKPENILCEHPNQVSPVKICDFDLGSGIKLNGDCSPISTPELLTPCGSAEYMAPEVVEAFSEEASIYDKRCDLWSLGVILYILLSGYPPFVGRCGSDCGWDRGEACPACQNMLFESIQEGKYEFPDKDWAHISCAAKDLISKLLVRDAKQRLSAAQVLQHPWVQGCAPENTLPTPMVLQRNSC

SMILES	Kd [3]	also measured
CC(C)(C)c1cc(NC(=O)Nc2ccc(NC(=O)c3ccc4ncccc4c3)cc2)no1		Kd [1]: 1 to 10 µM
CC(C)(C)c1cc(NC(=O)Nc2ccc(N3C(=O)c4ccccc4C3=O)cc2)no1		Kd [2]: < 0.1 µM
CC(C)(C)c1cc(NC(=O)Nc2ccc(NC(=O)c3cscn3)cc2)no1		Kd [1]: 0.1 to 1 µM
CC(C)(C)c1cc(NC(=O)Nc2ccc(NC(=O)c3ncccc3O)cc2)no1 [drawing 696]		Kd [2]: 0.1 to 1 µM
Cc1ccc(-n2nc(C(C)(C)C)cc2NC(=O)Nc2ccc(Cl)cc2)cc1	< 0.1 µM	
CC(C)(C)c1cc(NC(=O)NCc2cccc(Cl)c2)no1	0.1 to 1 µM	
CC(C)(C)c1cc(NC(=O)Nc2ccccc2)no1	1 to 10 µM	
CC(C)(C)c1cc(NC(=O)Nc2ccc(NC(=O)c3cnnc4ccccc34)cc2)no1		Kd [1]: < 0.1 µM
COc1cc2ncnc(Nc3ccc(NC(=O)Nc4cc(C(C)(C)C)on4)cc3)c2cc1OC [drawing 692]		Kd [1]: < 0.1 µM
COc1ccc(NC(=O)Nc2cc(C(C)(C)C)no2)cc1	1 to 10 µM	
CC(C)(C)c1cc(NC(=O)Nc2ccc(NC(=O)c3cnc4ccccc4c3)cc2)no1 [drawing 680]	1 to 10 µM	
COc1ccc(NC(=O)Nc2cc(C(C)(C)C)nn2-c2ccc(C)cc2)cc1	0.1 to 1 µM	
COc1cc2ncnc(Nc3ccc(NC(=O)Nc4cc(C(C)(C)C)on4)cc3)c2cc1OC [drawing 698]		Kd [2]: < 0.1 µM
Cc1ccc(NC(=O)Nc2cc(C(C)(C)C)on2)cc1	1 to 10 µM	
NC(=O)c1cc(Oc2ccc(Nc3c(Nc4ccc(Cl)c(C(F)(F)F)c4)c(=O)c3=O)cc2)ccn1	0.1 to 1 µM	
Cc1ccc(-n2nc(C(C)(C)C)cc2NC(=O)Nc2cc(C(C)(C)C)on2)cc1	0.1 to 1 µM	
CC(C)(C)c1cc(NC(=O)Nc2ccc(Nc3nc(Cl)nc4[nH]cnc34)cc2)no1 [drawing 697]		Kd [2]: 0.1 to 1 µM
Cc1ccc(-n2nc(C(C)(C)C)cc2NC(=O)Nc2ccc(Cl)c(C(F)(F)F)c2)cc1	0.1 to 1 µM	
C[S+]([O-])c1ccc(NC(=O)Nc2cc(C(C)(C)C)on2)cc1 (stereo not drawn)	1 to 10 µM	
CSc1ccc(NC(=O)Nc2cc(C(C)(C)C)no2)cc1	1 to 10 µM	
Cn1nc(C(C)(C)C)cc1NC(=O)Nc1cccc2ccccc12	0.1 to 1 µM	
COc1cc2nc(Cl)nc(Nc3ccc(NC(=O)Nc4cc(C(C)(C)C)on4)cc3)c2cc1OC [drawing 684]		Kd [1]: 1 to 10 µM
Cc1c(Cl)cccc1NC(=O)Nc1cc(C(C)(C)C)on1	0.1 to 1 µM	
CC(C)(C)c1cc(NC(=O)Nc2ccc(NC(=O)c3nccnc3N)cc2)no1		Kd [2]: 0.1 to 1 µM
CC(C)(C)c1cc(NC(=O)Nc2ccc(Cl)cc2)on1	1 to 10 µM	
CC(C)(C)c1cc(NC(=O)Nc2ccc(Cl)cc2)no1	1 to 10 µM	

SMILES	Kd [3]	also measured
CSc1ccc(NC(=O)Nc2cc(C(C)(C)C)on2)cc1	1 to 10 µM	
CC(C)(C)c1cc(NC(=O)Oc2ccc(NC(=O)c3nccnc3N)cc2)no1		Kd [1]: 0.1 to 1 µM
CC(C)(C)c1cc(NC(=O)Nc2ccc(Br)cc2F)on1	0.1 to 1 µM	
COc1ccc(NC(=O)Nc2cc(C(C)(C)C)on2)cc1	1 to 10 µM	
COc1cc(OC)nc(Oc2cccc(C(=O)Nc3ccc(NC(=O)Nc4cc(C(C)(C)C)on4)cc3)c2)n1 [drawing 693]		Kd [1]: 0.1 to 1 µM
COc1cc(OC)nc(Oc2cccc(C(=O)Nc3ccc(NC(=O)Nc4cc(C(C)(C)C)on4)cc3)c2)n1 [drawing 700]		Kd [2]: 1 to 10 µM
COc1cc2nc(Cl)nc(Nc3ccc(NC(=O)Nc4cc(C(C)(C)C)on4)cc3)c2cc1OC [drawing 699]		Kd [2]: < 0.1 µM
Cc1ccc(-n2nc(C(C)(C)C)cc2NC(=O)Nc2ccc(O)cc2)cc1	0.1 to 1 µM	
CC(C)(C)c1cc(NC(=O)Nc2ccc(O)cc2)no1	1 to 10 µM	
CC(C)(C)c1cc(NC(=O)Nc2ccc(Nc3ncnc4[nH]cnc34)cc2)no1 [drawing 701]		Kd [2]: < 0.1 µM
O=C(Nc1ccccc1)Nc1cc(Cl)c([N+](=O)O)cc1O	0.1 to 1 µM	
Cc1cnc(C(=O)Nc2ccc(NC(=O)Nc3cc(C(C)(C)C)on3)cc2)cn1		Kd [1]: 0.1 to 1 µM
CC(C)(C)c1cc(NC(=O)Nc2ccc(Nc3nc(Cl)nc4[nH]cnc34)cc2)no1 [drawing 682]		Kd [1]: 1 to 10 µM
CC(C)(C)c1cc(NC(=O)Nc2ccc(NC(=O)c3cnc4ccccc4c3)cc2)no1 [drawing 689]		Kd [1]: 1 to 10 µM
Cc1ccc(-n2nc(C(C)(C)C)cc2NC(=O)Nc2ccc(OCc3ccccc3)cc2)cc1	0.1 to 1 µM	
Cc1ccc(-n2nc(C(C)(C)C)cc2NC(=O)Nc2ccc(Br)cc2C(F)(F)F)cc1	0.1 to 1 µM	
CC(C)(C)c1cc(NC(=O)Nc2ccc(NC(=O)c3cccnc3)cc2)no1	0.1 to 1 µM	
Cc1ccc(-n2nc(C(C)(C)C)cc2NC(=O)Nc2ccc(OCCN3CCOC(CO)C3)c3ccccc23)cc1 (stereo not drawn)	< 0.1 µM	
CC(C)(C)c1cc(NC(=O)Nc2ccc(Nc3ncnc4[nH]cnc34)cc2)no1 [drawing 686]		Kd [1]: < 0.1 µM
CC(C)(C)c1cc(NC(=O)Nc2ccc(Nc3nc(N)nc4[nH]cnc34)cc2)no1 [drawing 691]		Kd [1]: < 0.1 µM
CC(C)(C)c1cc(NC(=O)Nc2ccc(OCCN3CCCCC3)c3ccccc23)no1	< 0.1 µM	
CC(C)(C)c1cc(NC(=O)Nc2ccc(Nc3nc(N)nc4[nH]cnc34)cc2)no1 [drawing 703]		Kd [2]: 0.1 to 1 µM
Cc1cnc(C(=O)Nc2ccc(NC(=O)Nc3cc(C(C)(C)C)on3)cc2)c(C(=O)O)n1		Kd [1]: 1 to 10 µM
CC(C)(C)c1cc(NC(=O)Nc2ccc(NC(=O)c3cccc4nsnc34)cc2)no1		Kd [1]: 1 to 10 µM
CC(C)(C)c1cc(NC(=O)Nc2ccc(NC(=O)c3ncccc3O)cc2)no1 [drawing 687]		Kd [1]: < 0.1 µM
